Reference: ChEMBL document CHEMBL1129551, “All-atom models for the non-nucleoside binding site of HIV-1 reverse transcriptase complexed with inhibitors: a 3D QSAR approach” (J Med Chem, 1996)

Target: Human immunodeficiency virus type 1 reverse transcriptase (Human immunodeficiency virus 1, UniProt Q72547)
Test: Inhibitory activity against HIV-1 reverse transcriptase

IC50	SMILES
12.2 µM	CCN1c2ncccc2-c2ncc(C)n2-c2c(C)cc(=O)[nH]c21
3.9 µM	CCN1c2ncccc2-c2nccn2-c2ccc(N3CC=CCC3)nc21
2.7 µM	CCN1c2ncccc2-c2ncc(C)n2-c2ccc(N3CC=CCC3)nc21
5.63 µM	CCc1nc2n(c1C)-c1cccnc1N(CC)c1ncccc1-2
